ChEMBL document CHEMBL3608300, “Synthesis and anticancer activity of novel curcumin-quinolone hybrids” (Bioorg Med Chem Lett, 2015)
Activity calls are given as the source filed them. No cut-off for these calls is given here.

Columns and labels:
A549 [1] = assay: Cytotoxicity against human A549 cells up to 10 uM after 24 hrs by MTT assay; format: functional, cell-based
SK-OV-3 [2] = assay: Cytotoxicity against human SKOV3 cells up to 10 uM after 24 hrs by MTT assay; format: functional, cell-based
NCI-H460 [3] = assay: Cytotoxicity against human H460 cells up to 10 uM after 24 hrs by MTT assay; format: functional, cell-based
MCF7 [4] = assay: Cytotoxicity against human MCF7 cells up to 10 uM after 24 hrs by MTT assay; format: functional, cell-based
SK-OV-3 [5] = assay: Cytotoxicity against human SKOV3 cells after 24 hrs by MTT assay; format: functional, cell-based; details: SK-OV-3, 24 h
MCF7 [6] = assay: Cytotoxicity against human MCF7 cells after 24 hrs by MTT assay; format: functional, cell-based; details: MCF7, 24 h
[7] = Cytotoxicity against human H460 cells after 24 hrs by MTT assay; format: functional, cell-based; details: NCI-H460, 24 h
A549 [8] = assay: Cytotoxicity against human A549 cells after 24 hrs by MTT assay; format: functional, cell-based; details: A549, 24 h
NCI-H460 [9] = assay: Cytotoxicity against human H460 cells up to 30 uM after 24 hrs by MTT assay; format: functional, cell-based
[10] = Cytotoxicity against mouse NIH/3T3 cells assessed as cell viability at IC50 after 24 hrs by MTT assay; format: functional, NIH3T3
SK-OV-3 [11] = assay: Induction of apoptosis in human SKOV3 cells assessed as early apoptotic cells at IC50 after 24 hrs using Annexin V-PE/7AAD staining by flow cytometry (reference value: 6.8%); format: functional
SK-OV-3 [12] = assay: Induction of apoptosis in human SKOV3 cells assessed as live cells at IC50 after 24 hrs using Annexin V-PE/7AAD staining by flow cytometry (reference value: 83.4%); format: functional
SK-OV-3 [13] = assay: Cell cycle arrest in human SKOV3 cells assessed as accumulation at G0/G1 phase at IC50 after 24 hrs using hypo propidium iodide staining by flow cytometry (reference value: 72.52%); format: functional
SK-OV-3 [14] = assay: Induction of cell morphological changes in human SKOV3 cells assessed as cells with ruptured cell membranes at IC50 after 24 hrs by phase contrast microscope analysis; format: functional, cell-based
SK-OV-3 [15] = assay: Cell cycle arrest in human SKOV3 cells assessed as accumulation at G2/M phase at IC50 after 24 hrs using hypo propidium iodide staining by flow cytometry (reference value: 15.43%); format: functional
SK-OV-3 [16] = assay: Cell cycle arrest in human SKOV3 cells assessed as accumulation at S phase at IC50 after 24 hrs using hypo propidium iodide staining by flow cytometry (reference value: 11.4%); format: functional
SK-OV-3 [17] = assay: Induction of cell morphological changes in human SKOV3 cells assessed as cell shrinkage and development of bubble like blebs on membranes at IC50 after 24 hrs by phase contrast microscope analysis; format: functional, cell-based
SK-OV-3 [18] = assay: Induction of ROS production in human SKOV3 cells at IC50 after 3 hrs using DCFDA dye by flow cytometry relative to control; format: functional
SK-OV-3 [19] = assay: Induction of apoptosis in human SKOV3 cells assessed as dead cells at IC50 after 24 hrs using Annexin V-PE/7AAD staining by flow cytometry (reference value: 0.7%); format: functional
SK-OV-3 [20] = assay: Induction of apoptosis in human SKOV3 cells assessed as apoptotic cells at IC50 after 24 hrs using Annexin V-PE/7AAD staining by flow cytometry (reference value: 9.0%); format: functional
SK-OV-3 [21] = assay: Cytotoxicity against human SKOV3 cells up to 30 uM after 24 hrs by MTT assay; format: functional, cell-based
MCF7 [22] = assay: Cytotoxicity against human MCF7 cells up to 30 uM after 24 hrs by MTT assay; format: functional, cell-based
A549 [23] = assay: Cytotoxicity against human A549 cells up to 30 uM after 24 hrs by MTT assay; format: functional, cell-based
MCF7 [24] = assay: Cell cycle arrest in human MCF7 cells assessed as accumulation at G2/M phase at 10 uM after 24 hrs (reference value: 9%); format: functional
HCT-15 = assay: Cell cycle arrest in human HCT15 cells assessed as accumulation at G2/M phase at 50 uM after 24 hrs (reference value: 17%); format: functional
HT-29 = assay: Cell cycle arrest in human HT-29 cells assessed as accumulation at G2/M phase at 50 uM after 24 hrs (reference value: 12%); format: functional
SJRH30 = assay: Induction of ROS production in human Rh30 cells at 10 uM after 1 to 2 hrs relative to control; format: functional

SMILES	IC50 (SK-OV-3 [5]) [µM]	IC50 (MCF7 [6]) [µM]	IC50 [7] [µM]	IC50 (A549 [8]) [µM]	other results
COc1cc(/C=C/C(O)=C/C(=O)/C=C/c2cc3ccccc3[nH]c2=O)ccc1O	–	–	–	–	Activity (A549 [1]): inactive; Activity (SK-OV-3 [2]): inactive; Activity (NCI-H460 [3]): inactive; Activity (MCF7 [4]): inactive
O=Cc1cc2ccccc2[nH]c1=O	> 100	> 100	> 100	> 100	–
C#CCn1c(=O)c(C=O)cc2cc(OC)ccc21	> 100	> 100	> 100	> 100	–
C#CCn1c(=O)c(C=O)cc2ccccc21	> 100	> 100	> 100	> 100	–
C=CCn1c(=O)c(/C=C/C(=O)/C=C(O)/C=C/c2ccc(O)c(OC)c2)cc2ccccc21	26	23.5	–	31.3	Activity (NCI-H460 [9]): inactive
O=Cc1cc2ccccc2n(Cc2ccccc2)c1=O	> 100	31.9	> 100	> 100	–
C#CCn1c(=O)c(/C=C/C(=O)/C=C(O)/C=C/c2ccc(O)c(OC)c2)cc2ccccc21	19	15	25.4	21.3	–
C#CCn1c(=O)c(/C=C/C(=O)/C=C(O)/C=C/c2ccc(O)c(OC)c2)cc2cc(C)ccc21	12.8	36.2	21.8	23.9	Activity [10]: 74.5%; Activity (SK-OV-3 [11]): 2.5%; Activity (SK-OV-3 [12]): 27.7%; Activity (SK-OV-3 [13]): 54.43%; Activity (SK-OV-3 [14]): Active; Activity (SK-OV-3 [15]): 25%; Activity (SK-OV-3 [16]): 19.49%; Activity (SK-OV-3 [17]): Active; Activity (SK-OV-3 [18]): 61.5%; Activity (SK-OV-3 [19]): 7.3%; Activity (SK-OV-3 [20]): 62.5%
C#CCn1c(=O)c(/C=C/C(=O)/C=C(O)/C=C/c2ccc(O)c(OC)c2)cc2cc(F)ccc21	> 100	25	44.3	40.5	–
C=CCn1c(=O)c(C=O)cc2ccccc21	> 100	> 100	> 100	> 100	–
C#CCn1c(=O)c(C=O)cc2cc(Cl)ccc21	> 100	> 100	> 100	> 100	–
C#CCn1c(=O)c(/C=C/C(=O)/C=C(O)/C=C/c2ccc(O)c(OC)c2)cc2cc(OC)ccc21	14	> 100	38.1	20.6	–
C#CCn1c(=O)c(C=O)cc2cc(F)ccc21	> 100	> 100	> 100	> 100	–
C#CCn1c(=O)c(/C=C/C(=O)/C=C(O)/C=C/c2ccc(O)c(OC)c2)cc2cc(Cl)ccc21	–	–	–	–	Activity (SK-OV-3 [21]): inactive; Activity (NCI-H460 [9]): inactive; Activity (MCF7 [22]): inactive; Activity (A549 [23]): inactive
O=C(/C=C(O)/C=C/c1cc2ccccc2[nH]c1=O)/C=C/c1cc2ccccc2[nH]c1=O	34	31.5	63.3	69.1	–
C#CCn1c(=O)c(C=O)cc2cc(C)ccc21	> 100	> 100	> 100	> 100	–
COc1cc(/C=C/C(=O)CC(=O)/C=C/c2ccc(O)c(OC)c2)ccc1O [CURCUMIN]	43.6	32.2	82.5	60.2	Activity (MCF7 [24]): 28%; Activity (HCT-15): 32%; Activity (HT-29): 33%; fold change (FC) (SJRH30): 1.5
COc1cc(/C=C/C(O)=C/C(=O)/C=C/c2cc3ccccc3n(Cc3ccccc3)c2=O)ccc1O	–	–	–	–	Activity (A549 [1]): inactive; Activity (SK-OV-3 [2]): inactive; Activity (NCI-H460 [3]): inactive; Activity (MCF7 [4]): inactive
